# Strand notation (5' to 3'): a small letter for the sugar, then the base; units joined by * are phosphorothioate-linked, units joined directly phosphodiester-linked; [ ] holds rarer units or linkages, { } end groups; capitals alone tell only the bases. e = 2'-O-(2-methoxyethyl) (MOE); [5mC] = 5-methylcytosine; d = 2'-deoxy (DNA)
# Tested on: GCGR mRNA
# Experiment: GCGR mRNA levels in liver and estimated ED50, C57/BL6 mice, single i.p. dose (Example 5, Tables 44, 45)
# Assay type: in vivo, mouse
# Method: Eight-week old male C57/BL6 mice (Jackson Laboratory, Bar Harbor, Me.) were administered a single dose of GCGR antisense compound by intraperitonel (i.p.) injection at a concentration of 10, 3.2, 1, and 0.32 μmol·kg. Each dose group consisted of four animals. Shown in Table 43 are the sequences, motifs and conjugates of the GCGR antisense compounds used in this study. Bolded residues indicate 2′-O-methoxyethyl (2′-MOE) modifications and the italicized residues indicate methyleneoxy (4′-CH2—O-2′) BNA modifications. All antisense compounds comprise phosphorothioate internucleoside linkages throughout and each cytosine is replaced with 5-methylcytosine. GCGR antisense compounds target published GCGR nucleic acids, including Genbank Accession No. BC031885.1 (SEQ ID NO: 7).
# To determine whether the phenotypic changes shown above correlated with a decrease in GCGR mRNA, treated animals were evaluated for levels of target mRNA in liver by RT, real time PCR according to methods described herein. Table 44 show results from direct comparisons of the antisense compounds targeting GCGR nucleic acid for their effect on target expression. Results are expressed as percent of saline control.
substance,measurement,setting,value
148364 (antisense eT*eG*e[5mC]*eA*e[5mC]*dT*dT*dT*dG*dT*dG*dG*dT*dA*d[5mC]*e[5mC]*eA*eA*eG*eG) [compound 148364],GCGR mRNA levels in liver,0.32 μmol/kg single i.p.,105% of saline control
same,GCGR mRNA levels in liver,1 μmol/kg single i.p.,106% of saline control
same,GCGR mRNA levels in liver,3.2 μmol/kg single i.p.,73% of saline control
same,GCGR mRNA levels in liver,10 μmol/kg single i.p.,38% of saline control
